In assay [1] the test system is Alternaria solani conidia. Nature of the assay: Tomato early blight, % disease control. In kind it is in vivo, Alternaria solani (host: tomato, variety Bonny Best). Particulars: 250 ppm spray; inoculated one day later; about 12 days; relative to untreated check plants. The protocol:
Compounds of the invention were tested for the control of the Tomato Early Blight organism, Alternaria solani conidia. Tomato (variety Bonny Best) seedlings of 6 to 7 weeks old were used. The tomato plants were sprayed with a 250-ppm solution of the test compound in an acetone-and-water solution containing a small amount of a nonionic emulsifier. The sprayed plants were inoculated one day later with the organism, dried and maintained at 60-80% relative humidity for about 12 days. Percent disease control was based on the percent disease development on untreated check plants.

A further assay deals with Septoria apii. The class given is in vivo, Septoria apii (host: celery, Utah). Particulars: 250 ppm (Table I default); approximately 48 hours incubation then approximately 14 days; relative to untreated check plants.
A further assay concerns Erysiphe polygoni. Kind of assay: Powdery mildew, % disease control. In kind it is in vivo, Erysiphe polygoni (host: bean seedlings, var. Bountiful). Particulars: 250 ppm spray; inoculated one day later; rated after about 10 days; relative to untreated check plants. The protocol:
The powdery mildew test was made using bean seedlings (var. Bountiful) with well-developed primary leaves. The pathogen was Erysiphe polygoni. The bean seedlings were sprayed with a 250-ppm solution of the test compound in an acetone-water mixture containing a nonionic emulsifier. The treated plants were inoculated one day after spray application of the test compound with the pathogen. The plants were then maintained in a greenhouse at a 60-80% relative humidity and at a temperature of 68°-70° F. The rate of infection on the leaves was made after about 10 days. The percent disease control provided by a given test compound was based on the disease reduction relative to untreated check plants.

Another assay concerns Phytophthora infestans. The class given is in vivo, Phytophthora infestans (host: tomato, cultivar Bonny Best). Particulars: 250 ppm spray; inoculated one day later; approximately 7 days in greenhouse; relative to untreated check plants.
The test system of a further assay is Uronyces phaseoli tipica. Nature of the assay: Leaf rust, % disease control. In kind it is in vivo, Uronyces phaseoli tipica (host: pinto beans). Particulars: 250 ppm spray; inoculated thereafter; rated after about 14 days; relative to untreated check plants. The protocol: The leaf-rust was made using pinto beans. The pathogen was Uronyces phaseoli tipica. The pinto-bean plants were sprayed with a 250-ppm solution of the test compound in an acetone-water mixture containing a nonionic emulsifier. The treated plants were inoculated thereafter with the pathogen and then incubated in an environmental chamber for approximately 20 hours at 100% relative humidity and a temperature of 68°-70° F. The plants were then removed from the chamber, allowed to dry, and then maintained in a greenhouse at a 60-80% relative humidity. The rate of infection on the leaves was made after about 14 days. The percent disease control provided by a given test compound was based on the disease reduction relative to untreated check plants.

The structures appear in SMILES notation.

The text below walks through data of patent publication US4264598A (priority 1980, dated 1981).

For `C#CC1(N2CN(C3(C#C)CCCCC3)CN(C3(C#C)CCCCC3)C2)CCCCC1` [Compound 1, 1,3,5-TRI(1'-ETHYNYLCYCLOHEXYL)-HEXAHYDRO-1,3,5-TRIAZINE], the “Fungicidal efficacy, % control, TEB” value in assay [1] worked out at 100%. For the same compound, the “Fungicidal efficacy, % control, CLB” value in the assay with Septoria apii is recorded as 74%. For the same compound, the “Fungicidal efficacy, % control, PM” value with Erysiphe polygoni is 37%. In addition, the “Fungicidal efficacy, % control, TLB” value in the assay on Phytophthora infestans worked out at 100%. For the same compound, the “Fungicidal efficacy, % control, LR” value with Uronyces phaseoli tipica was determined as 0%.

Consider `C#CC(C)(C)N1CN(C(C)(C)C#C)CN(C(C)(C)C#C)C1` [Compound 2, 1,3,5-(1',1'-dimethyl-propargyl)-hexahydro-1,3,5-triazine], for which the “Fungicidal efficacy, % control, TEB” value in assay [1] is recorded as 0%. Also, the “Fungicidal efficacy, % control, CLB” value with Septoria apii is on record as 27%. For the same compound, in the assay on Erysiphe polygoni, the “Fungicidal efficacy, % control, PM” value is reported as 0%. The “Fungicidal efficacy, % control, TLB” value in the assay with Phytophthora infestans was found to be 0%. Besides, the “Fungicidal efficacy, % control, LR” value in the assay on Uronyces phaseoli tipica worked out at 0%.
